According to patent US20100184685A1 (priority 2009, published 2010):
Where “and” joins values, the source holds several entries; their conditions need not be identical. Equal entries are not always repeated.

Assays:
post-operative pain [1] = tested on: post-operative pain; design: species or system human; details: in vivo
post-operative pain [2] = details: in vivo

For `CCCCN1CCCCC1C(=O)Nc1c(C)cccc1C` (stereo not shown) [Marcaine], the “pain level on the visual analog pain scale” value (post-operative pain [1]) was 5-6 /10 and 4 /10, the “pain on the visual analog pain scale” value (post-operative pain [2]) was 3-4 /10 and the “requirement for patient controlled analgesic (PCA) administration during hospitalization” value (post-operative pain [2]) was “did not require any patient controlled analgesic (PCA) administration”. For the same compound, the “signs of infection at the previous infusion catheter sites” value (post-operative pain [2]) was “without signs of infection”.
